Results published in US6329163A, “Assays for detecting β-secretase inhibition” (Elan Pharmaceuticals, Inc., priority 1998, dated 2001).

B1: peanut (PNA): lectin (protein, UniProt P02872 24-273, looked up)
Galactose-binding lectin: AETVSFNFNSFSEGNPAINFQGDVTVLSNGNIQLTNLNKVNSVGRVLYAMPVRIWSSATGNVASFLTSFSFEMKDIKDYDPADGIIFFIAPEDTQIPAGSIGGGTLGVSDTKGAGHFVGVEFDTYSNSEYNDPPTDHVGIDVNSVDSVKTVPWNSVSGAVVKVTVIYDSSTKTLSVAVTNDNGDITTIAQVVDLKAKLPERVKFGFSASGSLGGRQIHLIRSWSFTSTLITTTRRSIDNNEKKIMNMASA

Tests used:
β-secretase [1] = biological target: T1, β-secretase (Homo sapiens, UniProt P56817); assay: β-secretase assay in the presence of common protease inhibitors (MBP-C125 cleavage, SW-192 ELISA); assay type: biochemical; details: for IC50: Max Conc not given
T1 construct: purified from a natural source, such as human brain tissue or human 293 cells; endogenous in cells

APP = assay: Proteolytic activity of β-secretase as a function of pH; assay type: biochemical, human
β-secretase [2] = biological target: T1, β-secretase; assay: Binding of substantially purified β-secretase activity to immobilized lectins; details: immobilized lectin; Table 2
Description: Glycosylation of β-secretase has been investigated using various immobilized lectins, and ability of substantially purified β-secretase activity to bind to them was determined. […] A "-" sign signifies less than 20% binding, "+" between […] binding, "++" between 50-75% binding, and "+++" >75% binding.

T1 sequence (P56817 46-501): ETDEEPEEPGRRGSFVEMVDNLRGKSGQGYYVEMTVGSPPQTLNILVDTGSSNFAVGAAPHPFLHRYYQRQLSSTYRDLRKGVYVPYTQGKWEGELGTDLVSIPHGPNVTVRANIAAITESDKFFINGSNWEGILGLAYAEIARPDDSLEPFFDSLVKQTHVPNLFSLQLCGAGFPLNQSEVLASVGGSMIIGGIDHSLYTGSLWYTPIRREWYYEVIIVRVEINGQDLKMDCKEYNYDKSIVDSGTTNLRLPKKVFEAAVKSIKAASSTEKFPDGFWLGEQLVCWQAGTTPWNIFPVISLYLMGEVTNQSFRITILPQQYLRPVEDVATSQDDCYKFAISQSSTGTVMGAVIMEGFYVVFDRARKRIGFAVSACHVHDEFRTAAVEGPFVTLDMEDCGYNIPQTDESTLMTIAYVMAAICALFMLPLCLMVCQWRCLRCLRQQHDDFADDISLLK

Molecule | IC50 (β-secretase [1]; pH 5.5) [mM] | inhibition of β-secretase activity (in words) (β-secretase [1]) | further results
O=c1oc(Cl)c(Cl)c2ccccc12 [3,4-dichloroisocoumarin] | – | – | inhibition at 500 µM (β-secretase [1]; Max Conc 0.5 mM, pH 5.5): < 25%
CCCCC(NC(=O)C=[N+]=[N-])C(=O)OC (stereo not drawn) [diazoacetylnorleucylmethyl ester] | > 5 | – | –
c1cnc2c(c1)ccc1ncccc12 [m-phenanthroline] | 7 | also does so | –
c1cnc2c(c1)ccc1cccnc12 [o-phenanthroline] | 7 | inhibits poorly | –
β-secretase: enzyme which cleaves APP at the amino-terminus of β-amyloid peptide, purified from human 293 cells or human brain | – | – | pH of peak proteolytic activity (APP): 5 to 5.5; proteolytic activity (APP; pH 7.5 and above): very low activity
B1 | – | – | β-Secretase Binding (β-secretase [2]): + (between 24-40% binding)
